Results taken from ChEMBL document CHEMBL1201862, “PubChem BioAssay data set” (2004).
Activity calls are given as the source filed them.

Legend:
[1] = target: T1, Delta-type opioid receptor (Homo sapiens, UniProt P41143); assay: HTS Image-Based Screen for Antagonists of the DOR Receptor. [Related pubchem assays (depositor defined):AID1777, AID1785, AID1786, AID2133]; assay type: functional
[2] = target: Mu-type opioid receptor (Homo sapiens, UniProt P35372); assay: HTS Image-Based Screen for Agonists of the MOR Receptor. [Related pubchem assays (depositor defined):AID1777, AID1785, AID1786, AID2133]; assay type: functional;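 note: imaging of beta-arrestin GFP recruitment into spots after receptor activation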
[3] = tested on: Streptococcus sp. 'group A'; assay: Streptococcus pyogenes SK(-)GAS viability under kanamycin – luminescence, BacTiterGlo, confirmation, counter-screen for streptokinase expression inhibitor project, dose response (AID 1900); assay type: functional, organism-based
[4] = target: T1, Delta-type opioid receptor; assay: HTS Image-Based Screen for Agonists of the DOR Receptor. [Related pubchem assays (depositor defined):AID1777, AID1786, AID2133]; assay type: functional
[5] = A Cell Based Secondary Assay To Explore Cytotoxicity of Compounds that Sensitize Mycobacterium Tuberculosis to Beta-Lactam Antibiotics.; assay type: functional
[6] = target: T2, Beta-galactosidase (Escherichia coli, UniProt Q8VNN2); assay: PubChem AID 485352; assay type: functional
[7] = tested on: Vero; assay: mammalian cell viability reduction – secondary assay, cytotoxicity control for West Nile virus antiviral project, dose response (AID 1650); assay type: functional; settings: Chlorocebus sabaeus
[8] = target: T3, Streptokinase A (Streptococcus pyogenes serotype M1, UniProt P10520); assay: viability-normalized secreted streptokinase activity reduction – plasminogen activation absorbance, OD405, dose response (AID 1914); assay type: functional, Streptococcus pyogenes M1 GAS;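 note: secreted streptokinase activity via plasminogen activation per viability signal from cell pellet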
T3 sequence (P10520 whole entry): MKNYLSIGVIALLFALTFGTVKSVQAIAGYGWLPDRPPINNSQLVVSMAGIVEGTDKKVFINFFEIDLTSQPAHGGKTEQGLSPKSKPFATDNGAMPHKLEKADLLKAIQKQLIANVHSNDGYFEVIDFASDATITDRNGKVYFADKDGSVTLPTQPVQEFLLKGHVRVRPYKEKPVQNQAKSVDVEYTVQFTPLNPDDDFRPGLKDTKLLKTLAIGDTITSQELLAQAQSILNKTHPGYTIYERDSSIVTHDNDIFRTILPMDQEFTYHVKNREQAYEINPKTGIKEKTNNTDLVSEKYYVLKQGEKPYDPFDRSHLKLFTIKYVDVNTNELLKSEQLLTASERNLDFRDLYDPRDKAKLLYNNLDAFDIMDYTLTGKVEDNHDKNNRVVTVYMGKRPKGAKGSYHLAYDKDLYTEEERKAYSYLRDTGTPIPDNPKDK

[9] = target: T4, Type-1 angiotensin II receptor (Homo sapiens, UniProt P30556); assay: antagonism of angiotensin II type 1 receptor – cell-based, uHTS hits, selectivity assay for APJ receptor antagonist project, dose response (AID 463214); assay type: functional;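 note: antagonist potency against angiotensin II stimulated AT1 response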
T4 sequence (P30556 whole entry): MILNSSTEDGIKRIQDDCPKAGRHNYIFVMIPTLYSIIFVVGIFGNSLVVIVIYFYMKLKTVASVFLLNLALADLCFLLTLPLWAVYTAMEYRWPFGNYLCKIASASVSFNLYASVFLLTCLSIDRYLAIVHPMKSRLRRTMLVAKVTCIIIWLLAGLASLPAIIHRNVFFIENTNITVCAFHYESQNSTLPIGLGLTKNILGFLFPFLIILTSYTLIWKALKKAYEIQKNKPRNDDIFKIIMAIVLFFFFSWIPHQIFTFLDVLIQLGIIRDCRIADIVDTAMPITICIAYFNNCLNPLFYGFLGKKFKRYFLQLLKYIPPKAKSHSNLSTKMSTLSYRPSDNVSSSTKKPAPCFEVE

[10] = Luminescence Cell-Based Dose Confirmation HTS to Identify Inhibitors of Polyadenylation.; assay type: functional
[11] = target: T5, Kappa-type opioid receptor (Homo sapiens, UniProt P41145); assay type: functional
[12] = target: T2, Beta-galactosidase; assay type: functional
[13] = target: T5, Kappa-type opioid receptor; assay type: functional; remark: listed apart in the source
[14] = tested on: Streptococcus; assay: GAS UMAA2166 growth inhibition – luminescence, BacTiterGlo, counter-screen for streptokinase expression inhibitor project, dose response (AID 1915); assay type: functional, organism-based;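 note: potency for reduction of bacterial viability or growth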
[15] = tested on: Vero; assay: cells; assay type: functional, cell-based; settings: Chlorocebus sabaeus
[16] = tested on: Vero; assay: cells; assay type: functional; settings: Chlorocebus sabaeus
[17] = tested on: Vero; assay: inhibition of WNV-induced cytopathic effect – cell-based, CPE readout (AID 1621); assay type: functional; settings: Chlorocebus sabaeus
[18] = target: T6, Histone-lysine N-methyltransferase NSD2 (Homo sapiens, UniProt O96028); assay type: biochemical
T6 sequence (O96028 whole entry): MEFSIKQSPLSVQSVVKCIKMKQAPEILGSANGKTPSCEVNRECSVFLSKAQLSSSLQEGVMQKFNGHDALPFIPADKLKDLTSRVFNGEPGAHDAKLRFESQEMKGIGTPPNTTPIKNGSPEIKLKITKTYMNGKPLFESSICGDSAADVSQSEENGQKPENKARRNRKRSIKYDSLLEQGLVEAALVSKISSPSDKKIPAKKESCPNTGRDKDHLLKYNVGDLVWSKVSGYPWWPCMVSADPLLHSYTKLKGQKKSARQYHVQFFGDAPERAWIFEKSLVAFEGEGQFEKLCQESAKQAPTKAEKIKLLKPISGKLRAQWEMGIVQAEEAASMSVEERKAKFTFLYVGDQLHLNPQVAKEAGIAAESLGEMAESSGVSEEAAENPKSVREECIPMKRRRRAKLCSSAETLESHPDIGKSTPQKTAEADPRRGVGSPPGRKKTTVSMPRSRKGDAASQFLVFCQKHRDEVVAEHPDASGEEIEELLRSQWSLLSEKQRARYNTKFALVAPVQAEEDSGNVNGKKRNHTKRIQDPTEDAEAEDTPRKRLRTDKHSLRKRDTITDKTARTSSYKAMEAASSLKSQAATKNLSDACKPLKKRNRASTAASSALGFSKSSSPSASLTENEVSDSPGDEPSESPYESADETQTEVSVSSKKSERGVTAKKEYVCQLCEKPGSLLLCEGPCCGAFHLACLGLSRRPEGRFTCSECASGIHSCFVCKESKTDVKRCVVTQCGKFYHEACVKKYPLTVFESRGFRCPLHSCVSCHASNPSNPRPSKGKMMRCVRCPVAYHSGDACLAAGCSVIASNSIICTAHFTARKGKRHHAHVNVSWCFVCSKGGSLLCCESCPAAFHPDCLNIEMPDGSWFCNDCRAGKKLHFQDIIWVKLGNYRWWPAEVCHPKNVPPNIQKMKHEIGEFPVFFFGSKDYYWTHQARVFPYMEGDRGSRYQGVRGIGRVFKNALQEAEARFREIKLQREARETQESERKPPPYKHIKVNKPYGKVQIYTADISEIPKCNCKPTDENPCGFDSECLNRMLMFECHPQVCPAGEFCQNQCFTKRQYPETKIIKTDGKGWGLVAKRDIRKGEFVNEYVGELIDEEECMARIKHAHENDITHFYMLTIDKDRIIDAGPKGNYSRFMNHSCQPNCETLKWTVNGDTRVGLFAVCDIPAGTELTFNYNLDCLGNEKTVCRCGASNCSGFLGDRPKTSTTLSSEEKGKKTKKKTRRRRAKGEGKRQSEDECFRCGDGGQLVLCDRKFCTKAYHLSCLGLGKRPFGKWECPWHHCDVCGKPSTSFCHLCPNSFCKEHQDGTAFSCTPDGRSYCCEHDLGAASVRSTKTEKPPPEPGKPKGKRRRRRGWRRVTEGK

[19] = Luminescence Cell-Based Dose Response HTS to Identify Activators of Luciferase Translation or Activity in H4 […] Cells. [Related pubchem assays: 1829 (Project Summary), 1814 (Primary HTS)]; assay type: functional
[20] = tested on: H4; assay: Luminescence Cell-Based Dose Response HTS to Identify Activators of 5'UTR Stem-Loop Driven Prion Protein mRNA Translation in H4 Neuroglioblastoma Cells. [Related pubchem assays: 1829 (Project Summary), 1814 (Primary HTS)]; assay type: functional; settings: Homo sapiens
[21] = target: Aryl hydrocarbon receptor (Homo sapiens, UniProt P35869); assay: Luminescence-based cell-based high throughput dose response assay for activators of the Aryl Hydrocarbon Receptor (AHR). [Related pubchem assays: 2796 (Primary screen (AHR activators in singlicate)), 2845 (Confirmation screen (AHR activators in triplicate)), 434939 (Counterscreen (PXR activators in triplicate)), 2804 (Summary (AHR activators))]; assay type: ADME
[22] = target: 5-hydroxytryptamine receptor 1A (Homo sapiens, UniProt P08908); assay type: functional
[23] = target: T7, DNA repair protein RAD52 homolog (Homo sapiens, UniProt P43351); assay type: functional, biochemical
T7 sequence (P43351 whole entry): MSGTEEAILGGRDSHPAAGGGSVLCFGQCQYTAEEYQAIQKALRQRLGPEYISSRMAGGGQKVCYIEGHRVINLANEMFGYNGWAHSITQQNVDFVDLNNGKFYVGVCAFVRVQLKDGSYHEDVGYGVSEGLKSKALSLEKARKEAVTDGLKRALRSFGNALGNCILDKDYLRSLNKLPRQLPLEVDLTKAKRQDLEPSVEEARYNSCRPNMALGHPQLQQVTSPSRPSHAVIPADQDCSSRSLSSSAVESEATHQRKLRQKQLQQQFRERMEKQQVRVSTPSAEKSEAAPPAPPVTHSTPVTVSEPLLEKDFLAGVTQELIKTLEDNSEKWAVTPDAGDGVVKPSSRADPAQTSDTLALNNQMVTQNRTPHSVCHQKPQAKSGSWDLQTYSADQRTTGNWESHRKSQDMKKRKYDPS

T5 sequence (P41145 whole entry): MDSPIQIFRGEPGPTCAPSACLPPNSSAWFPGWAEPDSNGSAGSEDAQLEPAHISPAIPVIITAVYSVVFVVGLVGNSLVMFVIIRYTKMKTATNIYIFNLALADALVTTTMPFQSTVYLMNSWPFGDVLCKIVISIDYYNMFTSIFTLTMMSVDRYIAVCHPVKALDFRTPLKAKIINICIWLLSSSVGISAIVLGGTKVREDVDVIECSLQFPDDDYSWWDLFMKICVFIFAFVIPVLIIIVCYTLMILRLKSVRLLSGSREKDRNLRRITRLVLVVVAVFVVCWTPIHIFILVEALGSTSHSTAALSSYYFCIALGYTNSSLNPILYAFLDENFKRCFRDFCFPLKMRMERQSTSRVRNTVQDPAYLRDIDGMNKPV
T2 sequence (Q8VNN2 whole entry): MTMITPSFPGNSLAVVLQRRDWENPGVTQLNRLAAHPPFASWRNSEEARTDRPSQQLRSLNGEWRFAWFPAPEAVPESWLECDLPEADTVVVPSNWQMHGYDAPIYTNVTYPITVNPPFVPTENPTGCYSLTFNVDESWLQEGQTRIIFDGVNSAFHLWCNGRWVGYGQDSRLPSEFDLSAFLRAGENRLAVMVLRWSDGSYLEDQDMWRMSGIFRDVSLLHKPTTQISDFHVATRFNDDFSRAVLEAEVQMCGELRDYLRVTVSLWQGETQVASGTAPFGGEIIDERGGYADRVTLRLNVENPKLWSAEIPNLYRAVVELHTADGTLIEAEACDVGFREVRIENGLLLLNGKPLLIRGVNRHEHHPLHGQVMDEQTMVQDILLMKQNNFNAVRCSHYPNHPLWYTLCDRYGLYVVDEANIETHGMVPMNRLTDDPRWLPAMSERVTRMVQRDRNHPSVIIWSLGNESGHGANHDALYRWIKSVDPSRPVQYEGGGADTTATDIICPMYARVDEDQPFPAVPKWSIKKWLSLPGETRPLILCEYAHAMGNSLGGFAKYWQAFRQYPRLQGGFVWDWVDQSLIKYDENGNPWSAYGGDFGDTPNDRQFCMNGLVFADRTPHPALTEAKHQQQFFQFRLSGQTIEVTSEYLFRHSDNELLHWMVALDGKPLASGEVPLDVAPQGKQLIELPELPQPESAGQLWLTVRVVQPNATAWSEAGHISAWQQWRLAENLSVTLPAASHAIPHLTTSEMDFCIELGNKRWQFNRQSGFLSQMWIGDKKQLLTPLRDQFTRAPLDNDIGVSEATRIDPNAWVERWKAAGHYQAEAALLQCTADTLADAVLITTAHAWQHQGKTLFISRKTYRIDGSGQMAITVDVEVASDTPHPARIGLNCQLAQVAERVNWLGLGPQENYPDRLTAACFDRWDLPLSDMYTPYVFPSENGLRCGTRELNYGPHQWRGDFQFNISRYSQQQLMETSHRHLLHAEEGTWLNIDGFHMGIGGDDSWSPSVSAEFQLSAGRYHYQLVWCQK
T1 sequence (P41143 whole entry): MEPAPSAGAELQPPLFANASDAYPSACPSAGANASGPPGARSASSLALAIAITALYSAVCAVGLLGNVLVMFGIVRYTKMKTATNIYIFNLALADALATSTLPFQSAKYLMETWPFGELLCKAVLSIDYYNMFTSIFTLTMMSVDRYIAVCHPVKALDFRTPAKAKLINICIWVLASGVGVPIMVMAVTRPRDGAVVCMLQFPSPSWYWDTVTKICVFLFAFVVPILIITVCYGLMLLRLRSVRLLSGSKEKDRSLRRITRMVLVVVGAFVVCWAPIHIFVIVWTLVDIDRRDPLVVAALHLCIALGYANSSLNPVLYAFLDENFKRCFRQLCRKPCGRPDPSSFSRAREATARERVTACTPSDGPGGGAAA
Chain of Aryl hydrocarbon receptor (P35869 whole entry): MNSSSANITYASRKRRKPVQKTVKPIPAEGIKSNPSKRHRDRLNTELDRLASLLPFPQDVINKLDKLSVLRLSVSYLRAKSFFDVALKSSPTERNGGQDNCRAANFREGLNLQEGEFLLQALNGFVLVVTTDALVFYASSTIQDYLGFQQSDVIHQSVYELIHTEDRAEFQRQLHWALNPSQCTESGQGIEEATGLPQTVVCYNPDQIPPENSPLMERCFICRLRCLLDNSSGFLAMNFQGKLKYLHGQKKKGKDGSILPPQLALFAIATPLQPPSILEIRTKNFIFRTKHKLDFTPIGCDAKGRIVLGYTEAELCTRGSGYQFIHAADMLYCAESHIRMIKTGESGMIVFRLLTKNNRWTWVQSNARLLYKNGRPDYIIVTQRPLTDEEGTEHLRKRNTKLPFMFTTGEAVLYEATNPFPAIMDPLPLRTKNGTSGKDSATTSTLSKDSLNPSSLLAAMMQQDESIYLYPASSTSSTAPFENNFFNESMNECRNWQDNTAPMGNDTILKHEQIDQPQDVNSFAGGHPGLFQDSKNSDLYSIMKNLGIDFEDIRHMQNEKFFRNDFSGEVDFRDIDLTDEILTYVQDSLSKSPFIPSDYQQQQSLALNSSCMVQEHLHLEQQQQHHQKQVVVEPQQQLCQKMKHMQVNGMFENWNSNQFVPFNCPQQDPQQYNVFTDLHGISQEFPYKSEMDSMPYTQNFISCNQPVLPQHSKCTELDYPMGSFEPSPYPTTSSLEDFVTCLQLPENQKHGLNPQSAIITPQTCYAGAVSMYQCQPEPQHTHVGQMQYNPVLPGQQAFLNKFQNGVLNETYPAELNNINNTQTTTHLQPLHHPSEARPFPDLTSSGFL
Chain of 5-hydroxytryptamine receptor 1A (P08908 whole entry): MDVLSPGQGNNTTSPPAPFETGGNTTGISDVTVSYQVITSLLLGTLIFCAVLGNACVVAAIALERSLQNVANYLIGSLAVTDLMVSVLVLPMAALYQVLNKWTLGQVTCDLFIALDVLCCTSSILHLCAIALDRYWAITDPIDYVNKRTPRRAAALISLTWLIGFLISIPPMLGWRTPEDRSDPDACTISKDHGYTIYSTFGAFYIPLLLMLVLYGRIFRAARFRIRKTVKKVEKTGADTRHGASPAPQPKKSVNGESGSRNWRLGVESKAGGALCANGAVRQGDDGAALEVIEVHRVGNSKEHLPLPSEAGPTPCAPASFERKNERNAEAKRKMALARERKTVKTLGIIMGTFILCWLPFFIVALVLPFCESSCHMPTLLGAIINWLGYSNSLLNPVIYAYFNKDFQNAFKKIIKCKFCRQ
Chain of Mu-type opioid receptor (P35372 whole entry): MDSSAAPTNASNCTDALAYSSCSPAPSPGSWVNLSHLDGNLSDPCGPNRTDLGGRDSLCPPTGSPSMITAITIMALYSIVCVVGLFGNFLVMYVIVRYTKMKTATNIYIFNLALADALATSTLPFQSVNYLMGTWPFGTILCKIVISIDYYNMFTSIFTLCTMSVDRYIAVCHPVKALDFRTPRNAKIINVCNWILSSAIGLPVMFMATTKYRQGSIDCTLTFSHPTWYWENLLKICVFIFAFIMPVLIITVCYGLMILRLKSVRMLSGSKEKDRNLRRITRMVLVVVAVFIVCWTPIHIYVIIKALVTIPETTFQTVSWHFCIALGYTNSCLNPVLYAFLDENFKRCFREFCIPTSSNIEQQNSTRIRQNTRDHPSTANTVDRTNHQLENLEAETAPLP

## Cc1ccc(S(=O)(=O)Nc2cccc3cccnc23)c([N+](=O)[O-])c1
[1]
  IC50: > 32 µM (inactive)
[2]
  EC50: > 32 µM (inactive)
[3]
  EC50: 0.707 µM (active)
[4]
  EC50: > 32 µM (inactive)
[5]
  CC50: 5.64 µM (active)
[6]
  EC50: > 40 µM (inactive)
[7]
  CC50: 5.79 µM (active)
[8]
  EC50: > 150 µM (not active)
[9]
  IC50: 8.21 µM (active)
[10]
  EC50: > 120 µM (not active)
[11]
  IC50: 5.55 µM (active)
[12]
  EC50: > 31.5 µM (inactive)
[13]
  IC50: > 32 µM
[14]
  EC50: 17.4 µM (active)
[15]
  IC50: 18.4 µM (active)
[16]
  CC50: 7.85 µM (active)

## COc1ccc(-c2csc(N(CCCN(C)C)C(=O)c3ccccc3Cl)n2)cc1
[17]
  IC50: 25 µM (active)
[18]
  AC50: > 20 µM (inactive)

## Cc1ccc(/C=N/n2cc(-c3ccccc3)nc2S)s1
[19]
  EC50: 10.4 µM (active)
[20]
  EC50: 20 µM (active)
[21]
  EC50: 1.44 µM (active)

## Cc1[nH]c2ccccc2c1C1=CCNCC1
[22]
  EC50: > 50 µM (not active)
[23]
  AC50: 4.56 µM (active)
